Laboratory results as given in patent publication US9770025B2, “Fungicidal compositions” (Syngenta Participations AG, priority 2013, dated 2017).

Assays:
Assay type in all cases: cell-based
[1] = system: Monographella nivalis (Microdochium nivale); test: Monographella nivalis (Microdochium nivale) liquid culture growth inhibition
Experimental: (§1) Liquid Culture Tests in Well Plates
(§2) Mycelia fragments or conidia suspensions of a fungus, prepared either freshly from liquid cultures of the fungus or from cryogenic storage, were directly mixed into nutrient broth. DMSO solutions of the test compound (max. 10 mg/ml) was diluted with 0.025% Tween20 by factor 50 and 10 μl of this solution was pipetted into a microtiter plate (96-well format). The nutrient broth containing the fungal spores/mycelia fragments was then added to give an end concentration of the tested compound. The test plates were incubated in the dark at 24° C. and 96% rh. The inhibition of fungal growth was determined photometrically and visually after 2-4 days, depending on the pathosystem, and percent antifungal activity relative to the untreated check was calculated.
Monographella nivalis (Microdochium nivale)/Liquid Culture:
(§3) Conidia of the fungus from cryogenic storage were directly mixed into nutrient broth (PDB potato dextrose broth). After placing a (DMSO) solution of test compound into a microtiter plate (96-well format), the nutrient broth containing the fungal spores was added.

Fusarium culmorum = Fusarium culmorum liquid culture growth inhibition; settings: in PDB
Experimental: as §1, §2
Fusarium culmorum/Liquid Culture:
as §3

[2] = system: Botryotinia fuckeliana (Botrytis cinerea); test: Botryotinia fuckeliana (Botrytis cinerea) liquid culture growth inhibition; settings: in Vogels Broth
Experimental: as §1, §2
Botryotinia fuckeliana (Botrytis cinerea)/Liquid Culture:
Conidia of the fungus from cryogenic storage were directly mixed into nutrient broth (Vogels broth). After placing a (DMSO) solution of test compound into a microtiter plate (96-well format), the nutrient broth containing the fungal spores was added.

Pythium ultimum = Pythium ultimum (seedling damping off) liquid culture growth inhibition; settings: 0.0625 ppm; PDB; Table 10
Experimental: as §1, §2
Pythium ultimum Seedling Damping Off)/Liquid Culture:
Mycelia fragments and oospores of a newly grown liquid culture of the fungus were directly mixed into nutrient broth (PDB potato dextrose broth). After placing a (DMSO) solution of the test compounds into a microtiter plate (96-well format), the nutrient broth containing the fungal mycelia/spore mixture was added.

Alternaria solani = Alternaria solani liquid culture growth inhibition; settings: for (B4) Inhibition (%) / (B5) Inhibition (%) / (B2) Inhibition (%): PDB; for (B4) Inhibition (%): Table 11; for (B5) Inhibition (%): Table 13; for (B2) Inhibition (%): Table 9
Experimental: as §1
as §2, with “The nutrient broth containing the fungal spores/mycelia fragments was then added to give an end concentration of the tested compound.” left out
Alternaria solanil/Liquid Culture:
as §3

[3] = system: Mycosphaerella graminicola (Septoria tritici); test: Mycosphaerella graminicola (Septoria tritici) liquid culture growth inhibition; settings: for (B4) Inhibition (%) / (B5) Inhibition (%): PDB; for (B4) Inhibition (%): Table 12; for (B5) Inhibition (%): Table 14
Experimental: as §1, §2
Mycosphaerella graminicola (Septoria tritici)/Liquid Culture:
as §3

Gaeumannomyces graminis = Gaeumannomyces graminis liquid culture growth inhibition; settings: in PDB
Experimental: as §1, §2
Gaeumannomyces graminis/Liquid Culture:
Mycelial fragments of the fungus from cryogenic storage were directly mixed into nutrient broth (PDB potato dextrose broth). After placing a (DMSO) solution of test compound into a microtiter plate (96-well format), the nutrient broth containing the fungal spores was added.

[4] = Monographella nivalis, read-out: (B10) Inhibition (%)
[5] = Zymoseptoria tritici, read-out: (B10) Inhibition (%)

## COC(=O)N(OC)c1ccccc1COc1nc(Cl)c(Cl)cc1Cl [(B13), triclopyricarb, reference compound]
[1]; (B13) triclopyricarb alone at 0.0016 ppm, in PDB
  (B13) Inhibition (%): 23%
[1]; (B13) triclopyricarb alone at 0.0031 ppm, in PDB
  (B13) Inhibition (%): 51%
Fusarium culmorum; 0.0500 ppm
  (B13) Inhibition (%): 11%
Fusarium culmorum; 0.1000 ppm
  (B13) Inhibition (%): 10%
Fusarium culmorum; 0.2000 ppm
  (B13) Inhibition (%): 11%
[2]; (B13) triclopyricarb alone at 0.0125 ppm
  (B13) Inhibition (%): 8%
[2]; (B13) triclopyricarb alone at 0.0250 ppm
  (B13) Inhibition (%): 18%

## Cc1cc(C(F)(F)F)nn1CC(=O)N1CCC(c2nc(C3=NOC(c4c(F)cccc4F)C3)cs2)CC1 (stereo not drawn) [(B4), oxathiapiprolin]
Pythium ultimum
  (B4) Inhibition (%): 61%
Alternaria solani; 0.0039 ppm
  (B4) Inhibition (%): 0%
Alternaria solani; 0.0078 ppm
  (B4) Inhibition (%): 4%
Alternaria solani; 0.0156 ppm
  (B4) Inhibition (%): 0%
Alternaria solani; 0.0313 ppm
  (B4) Inhibition (%): 0%
[3]; 0.0313 ppm
  (B4) Inhibition (%): 8%
[3]; 0.0625 ppm
  (B4) Inhibition (%): 4%

## CC(=O)Oc1c(C)c(C)nc2c(F)cc(C(C)(C)C)cc12 [(B12), tebufloquin, reference compound]
[1]; 0.2500 ppm, in PDB
  (B12) Inhibition (%): 7%
[1]; 0.5000 ppm, in PDB
  (B12) Inhibition (%): 60%
Alternaria solani; 0.0156 ppm, in PDB
  (B12) Inhibition (%): 0%
Alternaria solani; 0.0313 ppm, in PDB
  (B12) Inhibition (%): 1%
[2]; 0.0313 ppm
  (B12) Inhibition (%): 5%
[2]; 0.1250 ppm
  (B12) Inhibition (%): 0%

## CO/C=C(/C(=O)OC)c1ccccc1COc1ccc(C(F)(F)F)cc1Cl [(B6), flufenoxystrobin, reference compound]
[1]; 0.0008 ppm, in PDB
  (B6) Inhibition (%): 23%
[1]; 0.0016 ppm, in PDB
  (B6) Inhibition (%): 51%
Fusarium culmorum; 0.0500 ppm
  (B6) Inhibition (%): 5%
Fusarium culmorum; 0.1000 ppm
  (B6) Inhibition (%): 3%
Fusarium culmorum; 0.2000 ppm
  (B6) Inhibition (%): 12%
Alternaria solani; 0.0016 ppm, in PDB
  (B6) Inhibition (%): 6%
Alternaria solani; 0.0063 ppm, in PDB
  (B6) Inhibition (%): 1%
[2]; 0.0063 ppm
  (B6) Inhibition (%): 17%
[2]; 0.0125 ppm
  (B6) Inhibition (%): 23%
[2]; 0.0250 ppm
  (B6) Inhibition (%): 33%
[3]; 0.0031 ppm, in PDB
  (B6) Inhibition (%): 17%
[3]; 0.0063 ppm, in PDB
  (B6) Inhibition (%): 23%
[3]; 0.0125 ppm, in PDB
  (B6) Inhibition (%): 33%

## CNC(=O)C(OC)c1ccccc1COc1cc(C)ccc1C (stereo not drawn) [(B11), mandestrobin, reference compound]
Gaeumannomyces graminis; 0.0500 ppm
  (B11) Inhibition (%): 17%
Gaeumannomyces graminis; 0.1000 ppm
  (B11) Inhibition (%): 53%
[1]; 0.0250 ppm, in PDB
  (B11) Inhibition (%): 0%
Fusarium culmorum; 0.1000 ppm
  (B11) Inhibition (%): 0%
Fusarium culmorum; 0.2000 ppm
  (B11) Inhibition (%): 11%
Alternaria solani; 0.0008 ppm, in PDB
  (B11) Inhibition (%): 0%
Alternaria solani; 0.0016 ppm, in PDB
  (B11) Inhibition (%): 3%
Alternaria solani; 0.0031 ppm, in PDB
  (B11) Inhibition (%): 0%
Alternaria solani; 0.0063 ppm, in PDB
  (B11) Inhibition (%): 12%
[2]; 0.0016 ppm
  (B11) Inhibition (%): 5%
[2]; 0.0250 ppm
  (B11) Inhibition (%): 0%
[2]; 0.0500 ppm
  (B11) Inhibition (%): 8%

## CCN(C)/C=N/c1cc(C)c(Oc2nc(Cc3ccc(Cl)cc3)ns2)cc1C [(B14), N′-[4-[[3-[(4-chlorophenyl)methyl]-1,2,4-thiadiazol-5-yl]oxy]-2,5-dimethylphenyl]-N-ethyl-N-methyl-methanimidamide, reference compound]
[1]; Monographella nivalis, (B14) compound of formula IV alone at 0.2500 ppm, in PDB
  inhibition at 0.25 ppm: 40%

## Cc1ccc(C(=O)NC[C@@H](NC(=O)OCC(F)(F)F)C(C)C)cc1 [(B5), tolprocarb]
Alternaria solani; 0.0391 ppm
  (B5) Inhibition (%): 0%
Alternaria solani; 0.0781 ppm
  (B5) Inhibition (%): 0%
Alternaria solani; 0.3125 ppm
  (B5) Inhibition (%): 0%
[3]; 0.0391 ppm
  (B5) Inhibition (%): 7%
[3]; 0.0781 ppm
  (B5) Inhibition (%): 1%
[3]; 0.1563 ppm
  (B5) Inhibition (%): 4%
[3]; 0.6250 ppm
  (B5) Inhibition (%): 1%

## CCCCc1c(C)c2ccc(OCc3ccccc3/C(=C\OC)C(=O)OC)cc2oc1=O [(B10), coumoxystrobin, reference compound]
[1]; [4]
  inhibition at 0.0008 ppm: 46%
  inhibition at 0.0016 ppm: 81%
Fusarium culmorum; Fusarium culmorum, 0.0500 ppm, read-out: (B10) Inhibition (%)
  inhibition at 0.05 ppm: 12%
Fusarium culmorum; Fusarium culmorum, 0.1000 ppm, read-out: (B10) Inhibition (%)
  inhibition at 0.1 ppm: 8%
Fusarium culmorum; Fusarium culmorum, 0.2000 ppm, read-out: (B10) Inhibition (%)
  inhibition at 0.2 ppm: 11%
[3]; [5]
  inhibition at 0.0016 ppm: 5%
  inhibition at 0.0031 ppm: 13%
  inhibition at 0.0063 ppm: 31%

## C=CCSC(=O)n1c(N)c(-c2ccccc2C)c(=O)n1C(C)C [(B2), fenpyrazamine]
Alternaria solani; 0.0313 ppm
  (B2) Inhibition (%): 0%
Alternaria solani; 0.0625 ppm
  (B2) Inhibition (%): 1%

## CC1CC(C)(C)c2c(F)ccc(NC(=O)c3cn(C)nc3C(F)F)c21 (stereo not drawn) [(B9)]
[1]; Monographella nivalis, 0.1250 ppm, in PDB, read-out: (B9) Inhibition (%)
  inhibition at 0.125 ppm: 0%
[1]; Monographella nivalis, 0.5000 ppm, in PDB, read-out: (B9) Inhibition (%)
  inhibition at 0.5 ppm: 0%
[1]; Monographella nivalis, 1.0000 ppm, in PDB, read-out: (B9) Inhibition (%)
  inhibition at 1 ppm: 10%
Alternaria solani; Alternaria solani, 0.0078 ppm, in PDB, read-out: (B9) Inhibition (%)
  inhibition at 0.0078 ppm: 0%
Alternaria solani; Alternaria solani, 0.0156 ppm, in PDB, read-out: (B9) Inhibition (%)
  inhibition at 0.0156 ppm: 11%
Alternaria solani; Alternaria solani, 0.0313 ppm, in PDB, read-out: (B9) Inhibition (%)
  inhibition at 0.0313 ppm: 5%
Alternaria solani; Alternaria solani, 0.0625 ppm, in PDB, read-out: (B9) Inhibition (%)
  inhibition at 0.0625 ppm: 22%
[2]; Botrytis cinerea, 0.0039 ppm, read-out: (B9) Inhibition (%)
  inhibition at 0.0039 ppm: 14%
[2]; Botrytis cinerea, 0.0078 ppm, read-out: (B9) Inhibition (%)
  inhibition at 0.0078 ppm: 19%
[2]; Botrytis cinerea, 0.0156 ppm, read-out: (B9) Inhibition (%)
  inhibition at 0.0156 ppm: 31%
[2]; Botrytis cinerea, 0.0313 ppm, read-out: (B9) Inhibition (%)
  inhibition at 0.0313 ppm: 52%
[3]; Zymoseptoria tritici, 0.0039 ppm, in PDB, read-out: (B9) Inhibition (%)
  inhibition at 0.0039 ppm: 0%
[3]; Zymoseptoria tritici, 0.0156 ppm, in PDB, read-out: (B9) Inhibition (%)
  inhibition at 0.0156 ppm: 0%
[3]; Zymoseptoria tritici, 0.0313 ppm, in PDB, read-out: (B9) Inhibition (%)
  inhibition at 0.0313 ppm: 9%
[3]; Zymoseptoria tritici, 0.0625 ppm, in PDB, read-out: (B9) Inhibition (%)
  inhibition at 0.0625 ppm: 7%
